Tested on: 454973-116-R2-J3-PDC complex spheroid viability
Assay: Anticancer human tumor 454973-116-R2-J3-PDC patient-derived pancreatic carcinoma cell line growth inhibition [POLQ]
Details: for IC50: curve of first compound; for viability, T/C: stronger effect = lower value; active means viability on the fitted dose curve at most 10% of control; inactive means the rest
Procedure, shortened: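 Three-cell-type spheroids modelling solid tumor plus stroma served as the readout system; POL inhibitors were tested individually and in combination, concentration ranges set by clinical Cmax where known.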

[1] = second compound 0.0316 µM, first compound 0.0316 µM
[2] = second compound 0.0316 µM, first compound 0.1 µM
[3] = second compound 0.0316 µM, first compound 0.316 µM
[4] = second compound 0.0316 µM, first compound 1 µM
[5] = second compound 0.0316 µM, first compound 3.16 µM
[6] = second compound 0.0316 µM, first compound 10 µM
[7] = second compound 0.1 µM, first compound 0.0316 µM
[8] = second compound 0.1 µM, first compound 0.1 µM
[9] = second compound 0.1 µM, first compound 0.316 µM
[10] = second compound 0.1 µM, first compound 1 µM
[11] = second compound 0.1 µM, first compound 3.16 µM
[12] = second compound 0.1 µM, first compound 10 µM
[13] = second compound 0.316 µM, first compound 0.0316 µM
[14] = second compound 0.316 µM, first compound 0.1 µM
[15] = second compound 0.316 µM, first compound 0.316 µM
[16] = second compound 0.316 µM, first compound 1 µM
[17] = second compound 0.316 µM, first compound 3.16 µM
[18] = second compound 0.316 µM, first compound 10 µM
[19] = second compound 1 µM, first compound 0.0316 µM
[20] = second compound 1 µM, first compound 0.1 µM
[21] = second compound 1 µM, first compound 0.316 µM
[22] = second compound 1 µM, first compound 1 µM
[23] = second compound 1 µM, first compound 3.16 µM
[24] = second compound 1 µM, first compound 10 µM
[25] = second compound 3.16 µM, first compound 0.0316 µM
[26] = second compound 3.16 µM, first compound 0.1 µM
[27] = second compound 3.16 µM, first compound 0.316 µM
[28] = second compound 3.16 µM, first compound 1 µM
[29] = second compound 3.16 µM, first compound 3.16 µM
[30] = second compound 3.16 µM, first compound 10 µM
[31] = second compound 10 µM, first compound 0.0316 µM
[32] = second compound 10 µM, first compound 0.1 µM
[33] = second compound 10 µM, first compound 0.316 µM
[34] = second compound 10 µM, first compound 1 µM
[35] = second compound 10 µM, first compound 3.16 µM
[36] = second compound 10 µM, first compound 10 µM
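Further: spheroids exposed to drugs for seven days before measurement.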
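Wherever viability, T/C is given: percent viability relative to DMSO vehicle control wells taken as 100%.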

C=CC(=O)N1CCN(c2nc(=O)n(-c3c(C)ccnc3C(C)C)c3nc(-c4c(O)cccc4F)c(F)cc23)C(C)C1 (stereo not drawn) + COC1C(OC(N)=O)C(O)C(Oc2ccc3c(O)c(NC(=O)c4ccc(O)c(CC=C(C)C)c4)c(=O)oc3c2C)OC1(C)C
inactive: viability, T/C [1] 108% | viability, T/C [2] 106% | viability, T/C [3] 97.8% | viability, T/C [4] 111% | viability, T/C [5] 114% | viability, T/C [6] 106% | viability, T/C [7] 108% | viability, T/C [8] 110% | viability, T/C [9] 105% | viability, T/C [10] 113% | viability, T/C [11] 111% | viability, T/C [12] 108% | viability, T/C [13] 102% | viability, T/C [14] 107% | viability, T/C [15] 103% | viability, T/C [16] 113% | viability, T/C [17] 113% | viability, T/C [18] 108% | viability, T/C [19] 113% | viability, T/C [20] 108% | viability, T/C [21] 105% | viability, T/C [22] 114% | viability, T/C [23] 104% | viability, T/C [24] 103% | viability, T/C [25] 110% | viability, T/C [26] 101% | viability, T/C [27] 105% | viability, T/C [28] 97.9% | viability, T/C [29] 111% | viability, T/C [30] 102% | viability, T/C [31] 101% | viability, T/C [32] 104% | viability, T/C [33] 99.8% | viability, T/C [34] 105% | viability, T/C [35] 110% | viability, T/C [36] 103%
> 10 µM: IC50 (second compound 0.0316 µM) | IC50 (second compound 0.1 µM) | IC50 (second compound 0.316 µM) | IC50 (second compound 1 µM) | IC50 (second compound 3.16 µM) | IC50 (second compound 10 µM)

CC1COCCN1c1cc(-c2ccnn2C)c2ccnc(-c3ccn[nH]3)c2n1 (stereo not drawn) + COC1C(OC(N)=O)C(O)C(Oc2ccc3c(O)c(NC(=O)c4ccc(O)c(CC=C(C)C)c4)c(=O)oc3c2C)OC1(C)C
0.217 µM: IC50 (second compound 0.1 µM)
0.223 µM: IC50 (second compound 3.16 µM)
inactive: viability, T/C [1] 97% | viability, T/C [2] 71.8% | viability, T/C [3] 38.5% | viability, T/C [4] 19.2% | viability, T/C [5] 22.8% | viability, T/C [6] 25.9% | viability, T/C [7] 97.3% | viability, T/C [8] 75.7% | viability, T/C [9] 38% | viability, T/C [10] 21.9% | viability, T/C [11] 20.1% | viability, T/C [12] 23.9% | viability, T/C [13] 97.8% | viability, T/C [14] 77.2% | viability, T/C [15] 35.4% | viability, T/C [16] 21.2% | viability, T/C [17] 23.2% | viability, T/C [18] 29.6% | viability, T/C [19] 103% | viability, T/C [20] 79% | viability, T/C [21] 37.8% | viability, T/C [22] 18.8% | viability, T/C [23] 23.2% | viability, T/C [24] 26.6% | viability, T/C [25] 100% | viability, T/C [26] 77.9% | viability, T/C [27] 39% | viability, T/C [28] 20.4% | viability, T/C [29] 26.1% | viability, T/C [30] 27.9% | viability, T/C [31] 105% | viability, T/C [32] 70.8% | viability, T/C [33] 38% | viability, T/C [34] 16.7% | viability, T/C [35] 25.9% | viability, T/C [36] 33.7%
0.205 µM: IC50 (second compound 0.0316 µM)
0.198 µM: IC50 (second compound 10 µM)
0.22 µM: IC50 (second compound 1 µM)
0.209 µM: IC50 (second compound 0.316 µM)

CCc1cc2c(N3CCc4c(cc(Cn5ccnc5)cc4-c4cn(C)nc4C(F)(F)F)C3=O)ccnc2c(OC)n1 + COC1C(OC(N)=O)C(O)C(Oc2ccc3c(O)c(NC(=O)c4ccc(O)c(CC=C(C)C)c4)c(=O)oc3c2C)OC1(C)C
inactive: viability, T/C [1] 109% | viability, T/C [2] 107% | viability, T/C [3] 96.7% | viability, T/C [4] 86.4% | viability, T/C [5] 90.8% | viability, T/C [6] 72.8% | viability, T/C [7] 101% | viability, T/C [8] 96% | viability, T/C [9] 96.8% | viability, T/C [10] 96.8% | viability, T/C [11] 91.5% | viability, T/C [12] 81.5% | viability, T/C [13] 99.8% | viability, T/C [14] 104% | viability, T/C [15] 96.5% | viability, T/C [16] 96.4% | viability, T/C [17] 88.8% | viability, T/C [18] 82.1% | viability, T/C [19] 112% | viability, T/C [20] 104% | viability, T/C [21] 99% | viability, T/C [22] 93.7% | viability, T/C [23] 85.8% | viability, T/C [24] 76.6% | viability, T/C [25] 107% | viability, T/C [26] 102% | viability, T/C [27] 97.8% | viability, T/C [28] 86.8% | viability, T/C [29] 82.4% | viability, T/C [30] 72.2% | viability, T/C [31] 113% | viability, T/C [32] 99% | viability, T/C [33] 96% | viability, T/C [34] 86.5% | viability, T/C [35] 84% | viability, T/C [36] 72.9%
> 10 µM: IC50 (second compound 0.0316 µM) | IC50 (second compound 0.1 µM) | IC50 (second compound 0.316 µM) | IC50 (second compound 1 µM) | IC50 (second compound 3.16 µM) | IC50 (second compound 10 µM)

COc1ccc([C@@H](O)c2cc(-c3ncnc4cc(N5CCOCC5)ccc34)c(F)cc2Cl)nn1 + COC1C(OC(N)=O)C(O)C(Oc2ccc3c(O)c(NC(=O)c4ccc(O)c(CC=C(C)C)c4)c(=O)oc3c2C)OC1(C)C
> 10 µM: IC50 (second compound 0.1 µM) | IC50 (second compound 0.316 µM) | IC50 (second compound 1 µM) | IC50 (second compound 3.16 µM) | IC50 (second compound 10 µM)
9.5 µM: IC50 (second compound 0.0316 µM)
inactive: viability, T/C [1] 97.9% | viability, T/C [2] 99.5% | viability, T/C [3] 99% | viability, T/C [4] 94.4% | viability, T/C [5] 75.2% | viability, T/C [6] 48.8% | viability, T/C [7] 104% | viability, T/C [8] 106% | viability, T/C [9] 96.7% | viability, T/C [10] 98.2% | viability, T/C [11] 73.2% | viability, T/C [12] 52.5% | viability, T/C [13] 112% | viability, T/C [14] 107% | viability, T/C [15] 98.3% | viability, T/C [16] 95% | viability, T/C [17] 71.7% | viability, T/C [18] 51.3% | viability, T/C [19] 113% | viability, T/C [20] 102% | viability, T/C [21] 115% | viability, T/C [22] 103% | viability, T/C [23] 65.6% | viability, T/C [24] 51.4% | viability, T/C [25] 112% | viability, T/C [26] 107% | viability, T/C [27] 98.8% | viability, T/C [28] 88.3% | viability, T/C [29] 78.8% | viability, T/C [30] 54.2% | viability, T/C [31] 116% | viability, T/C [32] 93.3% | viability, T/C [33] 93.3% | viability, T/C [34] 83.5% | viability, T/C [35] 76.3% | viability, T/C [36] 50.6%

Source: PubChem BioAssay AID1963846 (Molecular Pharmacology Branch, DTP, NCI, 2024)
